Eight molecules from patent publication US20150239831A1, “INHIBITORS OF CENTRAL NERVOUS SYSTEM VASOACTIVE INHIBITORY PEPTIDE RECEPTOR 2” (The Trustees Of Columbia University In The City Of New York, priority 2012, published 2015) can be followed below.

What all share (assay type): cell-based
Holding throughout (set-up): expressed in transfected cells; host or cells: HEK293 cells transfected with VIPR2 in pCDNA3.1 (as described)

Assay [1] addresses T1, VIPR2 (Homo sapiens, UniProt P41587).
T1 sequence (P41587 24-438): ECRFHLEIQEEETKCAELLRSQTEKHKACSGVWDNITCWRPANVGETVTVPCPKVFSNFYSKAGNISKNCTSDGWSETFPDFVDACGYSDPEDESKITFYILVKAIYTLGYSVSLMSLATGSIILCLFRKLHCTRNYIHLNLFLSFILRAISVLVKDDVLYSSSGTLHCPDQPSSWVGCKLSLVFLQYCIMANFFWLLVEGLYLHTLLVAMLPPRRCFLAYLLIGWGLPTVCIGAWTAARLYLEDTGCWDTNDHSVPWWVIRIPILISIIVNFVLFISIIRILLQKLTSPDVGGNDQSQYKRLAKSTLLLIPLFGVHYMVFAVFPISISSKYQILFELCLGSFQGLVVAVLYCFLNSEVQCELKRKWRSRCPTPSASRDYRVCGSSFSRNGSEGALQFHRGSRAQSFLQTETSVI
Description: Inhibition of VIP-induced β-arrestin recruitment (% Activity Arrestin). The source says:
(§1) In a further non-limiting embodiment of the invention, the ability of a compound to inhibit VIPR2 GPCR activity may be tested, for example, using the PathHunter® eXpress β-Arrestin GPCR system (Discoverx Corporation, Fremont, Calif., US), as used by Chu et al., 2010, Molecular Pharmacol. 7795-101. In this assay, β-Arrestin is fused to the “Enzyme Acceptor” (“EA”), an N-terminal deletion mutant of β-gal, and the GPCR of interest is fused to a smaller (42 amino acids), weakly complementing portion of the β-gal enzyme (termed “ProLink™”). In cells that stably express these fusion proteins, the interaction of β-Arrestin and the GPCR following ligand stimulation forces the complementation of the two β-gal fragments resulting in the formation of a functional enzyme that converts substrate to detectable signal. In the absence of an interaction between the GPCR and β-Arrestin, the enzyme activity is low due to the low affinity of the two enzyme fragments. For example, a nucleic acid encoding VIPR2, for example hVIPR2, may be cloned into the ProLink vector (DiscoveRx) for GPCR-ProLink fusion protein production. Parental HEK293 cells that stably express β-arrestin2-β-gal-EA fusion protein (DiscoveRx) may be detached and transiently transfected with the VIPR2-containing vector using Fugene6 transfection reagent in suspension mode. Transfected cells in assay medium may be plated into test plates, for example at 15,000 cells/25 μl/well. After overnight incubation, 500 nl of an inhibitor or test inhibitor may be introduced into the test plate followed by 2 h incubation at 37° C., 5% CO2. Flash detection reagents may be added at 12.5 μl/well. After 5 min to 1 h of room-temperature incubation, the cell plates may be read on CLIPR (PerkinElmer Life and Analytical Sciences)or Acquest (Molecular Devices, Sunnyvale, Calif.) for luminescence signal.
(§2) A series of compounds were prepared using a synthetic method analogous to that set forth in Scheme 1, above, and then tested for their ability to inhibit VIP-induced cAMP elevation and β-arrestin recruitment.
(§3) A series of compounds were prepared using a synthetic method analogous to that set forth in Scheme 1, above, and then tested for their ability to inhibit VIP-induced cAMP elevation and β-arrestin recruitment, as described herein (Discoverx Corporation, Fremont, Calif., US). Compound activities were also tested in a BRET-based assay, as described herein. The results are shown below in Tables 1-4, above.

The target in assay [2] is T1, VIPR2. Description: Inhibition of VIP-induced cAMP elevation (% Activity cAMP).
From the text: (§4) In a further non-limiting embodiment of the invention, the ability of a compound to inhibit VIPR2 and thereby […] a VIP-induced increase in cAMP may be measured using a Homogeneous Time-Resolved Fluorescence (“HTRF® assay; Cisbio Bioassays) as used in Chu et al., 2010, Molecular Pharmacol. 7795-101. In a method as used in Chu et al., 2010, Molecular Pharmacol. 7795-101, HEK293 cells may be transfected with nucleic acid encoding VIPR2, for example human VIPR2 (“hVIPR2”), for example comprised in a vector such as pCDNA3.1 vector. Successful transformants may then be selected, for example using 800 μg/ml G418. Clonal stable cell lines may then be generated by limited dilution to single cells and then may be clonally expanded and tested for VIP -dependent cAMP response. For the cAMP assay, about 3000-15,000 cells (in about 4-25 μl) may be placed in a well of an assay plate. The next day, inhibitor or test inhibitor and VIP may be added in a volume about 1-2 percent of the initial volume. Assay plates may then be returned to a cell incubator for 30 min before addition of a one-half volume of cAMP conjugate and, relative to the amount of cAMP conjugate, an equal volume of anti-cAMP conjugate (Cisbio). After at least 1 h of room-temperature incubation, HTRF signal may be read, for example using Viewlux or EnVision (PerkinElmer Life and Analytical Sciences, Waltham, Mass.). The ratio of […] at 665 nm and 620 nm times 10,000 may be calculated and plotted.
as §2, §3

Assay [3] deals with T1, VIPR2. Description: % Activity: inhibition of VIP-induced cAMP elevation and β-arrestin recruitment (Table 2).
From the text: as §4, §1, §3

Turning to `CC(C)(C)c1ccc(S(=O)(=O)NC[C@@H](O)C[C@@H](Cc2ccccc2)C(=O)N[C@H]2c3ccccc3C[C@H]2O)cc1` [A, reference compound], on VIPR2 [1] (Batch 1), the inhibition at 0.5 µM was determined as 0%, the inhibition at 1 µM worked out at 18.1% and the inhibition at 5 µM is 56.7%. In addition, at VIPR2 [2] (Batch 1), the inhibition at 0.5 µM is 9.7%, the inhibition at 1 µM was 13% and the inhibition at 5 µM worked out at 72.1%.

Regarding `O=C(NC[C@@H](O)C[C@@H](Cc1ccccc1)C(=O)N[C@H]1c2ccccc2C[C@H]1O)c1ccc2ccccc2c1` [B], on VIPR2 [1] (Batch 1), the inhibition at 0.5 µM is -2.9%, the inhibition at 1 µM came to 11.1% and the inhibition at 5 µM turned out to be 9.7%. On VIPR2 [2] (Batch 1), the inhibition at 0.5 µM is 13.2%, the inhibition at 1 µM was 16.3% and the inhibition at 5 µM was 23.5%. In addition, the “% Activity” value at VIPR2 [3] is 16.6%.

In the case of `O=C(NC[C@@H](O)C[C@@H](Cc1ccccc1)C(=O)N[C@H]1c2ccccc2C[C@H]1O)C1CC1` [Compound A1], at VIPR2 [1] (Batch 1), the inhibition at 0.5 µM was -3.8%, the inhibition at 1 µM was found to be 37% and the inhibition at 5 µM amounted to 29.1%. Also, on VIPR2 [2] (Batch 1), the inhibition at 0.5 µM was 21%, the inhibition at 1 µM worked out at 21.1% and the inhibition at 5 µM was found to be 24%. Besides, the “% Activity” value on VIPR2 [3] amounted to 26.55%.

In the case of `O=C(NC[C@@H](O)C[C@@H](Cc1ccccc1)C(=O)N[C@H]1c2ccccc2C[C@H]1O)c1ccco1` [Compound A2], on VIPR2 [1] (Batch 1), the inhibition at 0.5 µM was found to be 30.3%, the inhibition at 1 µM amounted to 27.7% and the inhibition at 5 µM came to 33.3%. For the same molecule, on VIPR2 [2] (Batch 1), the inhibition at 0.5 µM was found to be 20.8%, the inhibition at 1 µM was found to be 22.5% and the inhibition at 5 µM was found to be 19.1%. The “% Activity” value at VIPR2 [3] amounted to 26.2%.

Regarding `Cc1cc(S(=O)(=O)NC[C@@H](O)C[C@@H](Cc2ccccc2)C(=O)N[C@H]2c3ccccc3C[C@H]2O)c(C)cc1Cl` [Compound A3], at VIPR2 [1] (Batch 1), the inhibition at 0.5 µM stood at 17.6%, the inhibition at 1 µM was found to be 30.2% and the inhibition at 5 µM amounted to 0.6%. At VIPR2 [2] (Batch 1), the inhibition at 0.5 µM was 20.6%, the inhibition at 1 µM came out at 21.6% and the inhibition at 5 µM was 41.1%. In addition, the “% Activity” value on VIPR2 [3] was determined as 20.85%.

On to `CS(=O)(=O)NC[C@@H](O)C[C@@H](Cc1ccccc1)C(=O)N[C@H]1c2ccccc2C[C@H]1O` [Compound A5], for which, at VIPR2 [1] (Batch 1), the inhibition at 0.5 µM worked out at 17.3%, the inhibition at 1 µM amounted to 31.6% and the inhibition at 5 µM was determined as 23.4%. Besides, on VIPR2 [2] (Batch 1), the inhibition at 0.5 µM was 21.4%, the inhibition at 1 µM turned out to be 21.9% and the inhibition at 5 µM was 18.5%. For the same molecule, the “% Activity” value on VIPR2 [3] was 20.95%.

As to `O=C(NC[C@@H](O)C[C@@H](Cc1ccccc1)C(=O)N[C@H]1c2ccccc2C[C@H]1O)C(Cl)Cl` [Compound A6], at VIPR2 [1] (Batch 1), the inhibition at 0.5 µM stood at 9.5%, the inhibition at 1 µM stood at 17.4% and the inhibition at 5 µM amounted to 20%. In addition, at VIPR2 [2] (Batch 1), the inhibition at 0.5 µM came out at 18.4%, the inhibition at 1 µM was 18.3% and the inhibition at 5 µM came out at 19.6%. Further, at VIPR2 [3], the “% Activity” value is reported as 19.8%.

Turning to `O=C(N[C@H]1c2ccccc2C[C@H]1O)[C@H](Cc1ccccc1)C[C@H](O)CNS(=O)(=O)c1ccc([N+](=O)[O-])cc1` [Compound A27, reference compound], the inhibition at 0.5 µM against VIPR2 [1] (Batch 1) was 37.7%; at VIPR2 [1] (Batch 2) it was 15.6%; on VIPR2 [1] (Batch 3) it was 2.6%; against VIPR2 [2] (Batch 1) it was 42.6%; on VIPR2 [2] (Batch 2) it was 38.7%; against VIPR2 [2] (Batch 3) it was 74.3%. Further, the inhibition at 1 µM was 74.6% on VIPR2 [1] (Batch 1); 38.6% against VIPR2 [1] (Batch 2); -2.6% against VIPR2 [1] (Batch 3); 71.3% at VIPR2 [2] (Batch 1); 70.9% at VIPR2 [2] (Batch 2); 86.1% against VIPR2 [2] (Batch 3). For the same molecule, the inhibition at 5 µM worked out at 88.7% on VIPR2 [1] (Batch 1); 92% on VIPR2 [1] (Batch 2); 29.3% on VIPR2 [1] (Batch 3); 99.1% on VIPR2 [2] (Batch 1); 100% at VIPR2 [2] (Batch 2); 97.8% against VIPR2 [2] (Batch 3).
